Results published in patent US11279913B2, “Sperm processing method, apparatus and related media compositions” (Inguran, LLC, priority 2017, dated 2022).

Columns and labels:
Assay type in all cases: cell-based
bovine sperm [1] = test: Motility of stained unsorted bovine sperm held in Caprogen-type fresh media (fluorescent CASA), Example 14
Excerpt: This is with “conventional” (unsorted) sperm stained with Hoechst 33342 (to facilitate CASA using fluorescence).
The fresh extender is a media similar to Caprogen, which contains 5% (v/v) egg yolk and is bubbled with nitrogen gas prior to diluting sperm.
In Caprogen with glycerol, the concentration of glycine is 135 millimolar and the concentration of glycerol is 135 millimolar. Control Media 1 was made with these same concentrations, while the balance of test media (Media 2-7) were made with the following concentrations as shown in Table 13:
Fresh Bovine Ejaculates of 5 bulls were diluted to 160 million sperm per mL into Staining TALP, combined with Hoechst 33342 DNA stain, incubated 60 minutes at 34° C. (as standard staining for XY sperm sorting). Once stained, the sperm in TALP were diluted in the related media to a new concentration of 15 million sperm per mL and placed into 0.25 cc straws, sealed and held horizontal at 18° C. for 4 days. On each day, one straw of sperm was warmed for 15 minutes at 34° C. and the contents of about 200 microliters from the straw were combined with 100 microliters of fresh media identical to the specified test media used to hold the sperm. Sperm were analyzed on fluorescent CASA (Hamilton Thorne IVOS II) using UV illumination.

sorted bovine sperm = test: Motility of sorted bovine sperm stored in CaproGLY or CaproERY at 17° C. (visual and CASA), Example 15; conditions: holding times longer than 4 days; erythritol versus glycerol in Caprogen
Description: Standard Caprogen (with glycerol) is referred to as “CaproGLY” and erythritol containing Caprogen is referred to as “CaproERY.”
Preparation of media in volume of 100 mL: 95 mL of the respective media working solution is combined with 5 mL of egg yolk, stirred for 15 minutes, held overnight at 4° C., centrifuged for 60 minutes at 1200 G in 50 mL Falcon Tubes (clarified). On day of use, nitrogen gas is bubbled through the clarified media for 15 minutes.
Sorting of the sperm to be held in the two fresh extenders: Fresh Ejaculates of 3 Jersey bulls are bulk sorted according to standard proprietary sex sorting methods disclosed in other patents. In brief, sperm are washed, concentrated and resuspended in a Hepes buffered TRIS Citrate extender to normalize concentration to about […] and pH about 7.15. Each 1 mL of staining comprises: 0.150 mL of sperm solution (about 160 million sperm), 64 nanomoles of Hoechst 33342 in 8 microliters, […] of staining TALP and 100 nanomoles of FD&C food dye. […]
The formulated sperm are filled into 0.25 cc straws, sealed and stored horizontally at 17° C. for up to nine days. On the specified test days, a straw is opened and checked for visual motility (counted by eye by technician using microscope analysis on heated stage), CASA total motility and CASA progressive motility using a Hamilton Thorne IVOS system. […]

bovine sperm [2] = test: Post-thaw visual motility of unstained non-sorted sperm frozen in erythritol test media, Example 17 first test
Description: Standard bovine sperm sorting uses sheath fluid comprising 68 mM Fructose, 80 mM Citrate and 243 mM TRIS at pH 6.80 and osmolarity 290-300 mOsm. […] Combining 88 volumes of TRIS A with 12 volumes of pure glycerol creates a solution called TRIS B (The “B Fraction”). In the case of standard sperm sorting, the “B Fraction” may optionally contain no egg yolk and may be called “[…] Fraction” still containing 12 volumes of pure glycerol. […] The pH of all media was 6.70-6.75 and the osmolarity was 290-305 mOsm. The same two bulls were used for each of two tests and were measured for post-thaw quality at the same time. The first test was done with unstained non-sorted sperm similar to standard “conventional freezing.” The second test was done using different sheath fluids for sorting sperm. The first test compared control (standard media) to 7 alternate media (A-G) with compositions including various amounts of erythritol and in some cases glycine. 10 milliliters of sperm of each bull at a concentration of 100 million sperm per milliliter was cooled in standard TRIS A (control media) over 90 minutes from room temperature to about 4-6° C. Samples were then divided into 1 milliliter aliquots and 0.5 mL of cold TEST-B media was added, held for 15 minutes before an additional 0.5 mL of TEST-B media was added. […]

bovine sperm [3] = test: Post-thaw visual motility of sperm sorted with different sheath fluids, Example 17 second test; conditions: up to 60 mM erythritol in sheath fluid; standard post-sort handling
Description: Standard bovine sperm sorting uses sheath fluid comprising 68 mM Fructose, 80 mM Citrate and 243 mM TRIS at pH 6.80 and osmolarity 290-300 mOsm. […] Combining 88 volumes of TRIS A with 12 volumes of pure glycerol creates a solution called TRIS B (The “B Fraction”). In the case of standard sperm sorting, the “B Fraction” may optionally contain no egg yolk and may be called “[…] Fraction” still containing 12 volumes of pure glycerol. […] The pH of all media was 6.70-6.75 and the osmolarity was 290-305 mOsm. The same two bulls were used for each of two tests and were measured for post-thaw quality at the same time. The first test was done with unstained non-sorted sperm similar to standard “conventional freezing.” The second test was done using different sheath fluids for sorting sperm. The second test compared a CONTROL (standard) sheath fluid to three alternate sheath fluids (H-J). After sorting all samples were handled in the identical manner to standard sperm sorting. A 3.5 mL volume of catch fluid (TRIS A) is placed in each catch tube and sorted sperm are sorted into the catch tube to a volume of 20 mL. That volume of fluid is then cooled for 90 minutes to about 4-6° C. then an equal volume of cold […] Fraction is added. […]

Structure (SMILES) | support of bovine sperm motility (in words) (bovine sperm [1]; as much as 400 millimolar Erythritol in fresh bovine extender, 4 day period) | preserving quality as seen in motility (in words) (sorted bovine sperm) | erythritol concentration giving optimal freezing results (bovine sperm [2]) [mM] | effect on sperm quality when present in sheath fluid (in words) (bovine sperm [3]) | support of sperm motility (in words) (bovine sperm [1]; up to 4 days, 135 millimolar glycerol, or its replacement with erythritol, in Caprogen fresh media)
OC[C@@H](O)[C@@H](O)CO [erythritol] | good support of bovine sperm motility | better at preserving quality as seen in motility | 15 to 50 | beneficial to sperm quality | –
OCC(O)CO [glycerol, reference compound] | – | – | – | – | beneficial for supporting sperm motility
